Assays:
Assay type in all cases: functional
St-4 = experiment: Antiproliferative activity against human St4 cells by sulforhodamine B assay relative to control
SNB-78 = experiment: Antiproliferative activity against human SNB78 cells by sulforhodamine B assay relative to control
DU-145 = experiment: Antiproliferative activity against human DU145 cells by sulforhodamine B assay relative to control
HCT-15 = experiment: Antiproliferative activity against human HCT15 cells by sulforhodamine B assay relative to control
SNB-75 = experiment: Antiproliferative activity against human SNB75 cells by sulforhodamine B assay relative to control
MKN-45 = experiment: Antiproliferative activity against human MKN45 cells by sulforhodamine B assay relative to control
SF-295 = experiment: Antiproliferative activity against human SF295 cells by sulforhodamine B assay relative to control
[1] = Antiproliferative activity against human OVACR4 cells by sulforhodamine B assay relative to control
MKN-28 = experiment: Antiproliferative activity against human MKN28 cells by sulforhodamine B assay relative to control
SF-539 = experiment: Antiproliferative activity against human SF539 cells by sulforhodamine B assay relative to control
NCI-H522 = experiment: Antiproliferative activity against human NCI-H522 cells by sulforhodamine B assay relative to control
A549 = experiment: Antiproliferative activity against human A549 cells by sulforhodamine B assay relative to control
HCT-116 = experiment: Antiproliferative activity against human HCT116 cells by sulforhodamine B assay relative to control
[2] = Antiproliferative activity against human MKN1 cells by sulforhodamine B assay relative to control; settings: MKN-1
PC-3 = experiment: Antiproliferative activity against human PC3 cells by sulforhodamine B assay relative to control
KM12 = experiment: Antiproliferative activity against human KM12 cells by sulforhodamine B assay relative to control
[3] = Antiproliferative activity against human HBC4 cells by sulforhodamine B assay relative to control
SK-OV-3 = experiment: Antiproliferative activity against human SKOV3 cells by sulforhodamine B assay relative to control
ACHN = experiment: Antiproliferative activity against human ACHN cells by sulforhodamine B assay relative to control
[4] = Antiproliferative activity against human BSY1 cells by sulforhodamine B assay relative to control; settings: BSY-1
MKN-7 = experiment: Antiproliferative activity against human MKN7 cells by sulforhodamine B assay relative to control
NCI-H460 = experiment: Antiproliferative activity against human NCI-H460 cells by sulforhodamine B assay relative to control
[5] = Antiproliferative activity against human HBC5 cells by sulforhodamine B assay relative to control
[6] = Antiproliferative activity against human RXF631L cells by sulforhodamine B assay relative to control; settings: RXF 631
DMS-114 = experiment: Antiproliferative activity against human DMS114 cells by sulforhodamine B assay relative to control
[7] = Antiproliferative activity against human OVACR8 cells by sulforhodamine B assay relative to control
NCI-H226 = experiment: Antiproliferative activity against human NCI-H226 cells by sulforhodamine B assay relative to control
HT-29 = experiment: Antiproliferative activity against human HT29 cells by sulforhodamine B assay relative to control
SF-268 = experiment: Antiproliferative activity against human SF268 cell by sulforhodamine B assay relative to control
NCI-H23 = experiment: Antiproliferative activity against human NCI-H23 cells by sulforhodamine B assay relative to control
[8] = Antiproliferative activity against human OVACR5 cells by sulforhodamine B assay relative to control
LOX IMVI = experiment: Antiproliferative activity against human LOX IMVI cells by sulforhodamine B assay relative to control
DMS-273 = experiment: Antiproliferative activity against human DMS273 cells by sulforhodamine B assay relative to control
MKN-74 = experiment: Antiproliferative activity against human MKN74 cells by sulforhodamine B assay relative to control
HCC 2998 = experiment: Antiproliferative activity against human HCC2998 cells by sulforhodamine B assay relative to control
MCF7 = experiment: Antiproliferative activity against human MCF7 cells by sulforhodamine B assay relative to control
U-251 = experiment: Antiproliferative activity against human U251 cells by sulforhodamine B assay relative to control
MDA-MB-231 = experiment: Antiproliferative activity against human MDA-MB-231 cells by sulforhodamine B assay relative to control
[9] = Antiproliferative activity against human OVACR3 cells by sulforhodamine B assay relative to control

Compound | GI50 (DU-145) | GI50 (HCT-15) | GI50 (MKN-45) | GI50 (MKN-28) | GI50 (NCI-H522) | GI50 (A549) | GI50 (HCT-116) | GI50 (PC-3) | GI50 (SK-OV-3) | GI50 (ACHN) | GI50 (St-4) | GI50 (SNB-78) | GI50 (SNB-75) | GI50 (SF-295) | GI50 [1] | GI50 (SF-539) | GI50 [2] | GI50 (KM12) | GI50 [3] | GI50 [4] | other results
CCCCCCCCCCCC[C@@H](O)[C@H]1CC[C@H]([C@H](O)CCCCCCCCCCCCc2cncnc2)O1 | 90 µM | 47 µM | 50 µM | 13 µM | 13 µM | 42 µM | 28 µM | 35 µM | 33 µM | 40 µM | 39 µM | 52 µM | 28 µM | 25 µM | 22 µM | 28 µM | 32 µM | 36 µM | 56 µM | 34 µM | GI50 (MKN-7): 6.1 µM; GI50 (NCI-H460): 40 µM; GI50 [5]: 17 µM; GI50 [6]: > 43 µM; GI50 (DMS-114): 4.1 µM; GI50 [7]: 29 µM; GI50 (NCI-H226): 22 µM; GI50 (HT-29): 33 µM; GI50 (SF-268): 49 µM; GI50 (NCI-H23): 11 µM; GI50 [8]: > 100 µM; GI50 (LOX IMVI): 16 µM; GI50 (DMS-273): 28 µM; GI50 (MKN-74): 38 µM; GI50 (HCC 2998): 28 µM; GI50 (MCF7): 34 µM; GI50 (U-251): 61 µM; GI50 (MDA-MB-231): > 100 µM; GI50 [9]: 29 µM
CCCCCCCCCCCC[C@@H](O)[C@H]1CC[C@H]([C@H](O)CCCCCCCCCCCCc2ncccn2)O1 | > 100 µM | > 100 µM | > 100 µM | 48 µM | 17 µM | > 100 µM | > 100 µM | > 68 µM | 74 µM | > 100 µM | > 100 µM | > 100 µM | 32 µM | > 100 µM | 38 µM | 41 µM | > 100 µM | > 100 µM | > 100 µM | > 100 µM | GI50 (MKN-7): 27 µM; GI50 (NCI-H460): > 100 µM; GI50 [5]: 50 µM; GI50 [6]: > 100 µM; GI50 (DMS-114): 16 µM; GI50 [7]: > 100 µM; GI50 (NCI-H226): 30 µM; GI50 (HT-29): > 100 µM; GI50 (SF-268): > 100 µM; GI50 (NCI-H23): 28 µM; GI50 [8]: > 100 µM; GI50 (LOX IMVI): 12 µM; GI50 (DMS-273): 92 µM; GI50 (MKN-74): 69 µM; GI50 (HCC 2998): > 100 µM; GI50 (MCF7): 79 µM; GI50 (U-251): > 100 µM; GI50 (MDA-MB-231): > 100 µM; GI50 [9]: > 100 µM
CCCCCCCCCCCC[C@@H](O)[C@H]1CC[C@H]([C@H](O)CCCCCCCCCCCCc2cnc(N)nc2)O1 | > 100 µM | > 100 µM | > 100 µM | 40 µM | 22 µM | > 100 µM | > 100 µM | > 100 µM | 56 µM | > 100 µM | > 100 µM | > 100 µM | 27 µM | 56 µM | > 100 µM | 62 µM | > 100 µM | > 100 µM | > 100 µM | > 100 µM | GI50 (MKN-7): 9.4 µM; GI50 (NCI-H460): > 100 µM; GI50 [5]: > 100 µM; GI50 [6]: > 100 µM; GI50 (DMS-114): 4.8 µM; GI50 [7]: 90 µM; GI50 (NCI-H226): 44 µM; GI50 (HT-29): 90 µM; GI50 (SF-268): > 100 µM; GI50 (NCI-H23): 36 µM; GI50 [8]: > 100 µM; GI50 (LOX IMVI): 58 µM; GI50 (DMS-273): > 100 µM; GI50 (MKN-74): > 100 µM; GI50 (HCC 2998): 89 µM; GI50 (MCF7): > 100 µM; GI50 (U-251): > 100 µM; GI50 (MDA-MB-231): > 100 µM; GI50 [9]: > 100 µM

Now from value to molecule, other results behind:

GI50 (DU-145) | GI50 (HCT-15) | GI50 (MKN-45) | GI50 (MKN-28) | GI50 (NCI-H522) | GI50 (A549) | GI50 (HCT-116) | GI50 (PC-3) | GI50 (SK-OV-3) | GI50 (ACHN) | Compound | GI50 (St-4) | GI50 (SNB-78) | GI50 (SNB-75) | GI50 (SF-295) | GI50 [1] | GI50 (SF-539) | GI50 [2] | GI50 (KM12) | GI50 [3] | GI50 [4] | other results
> 100 µM | > 100 µM | > 100 µM | 4.4 µM | 3.8 µM | 31 µM | 9.2 µM | > 100 µM | 77 µM | 88 µM | CCCCCCCCCCCC[C@@H](O)[C@H]1CC[C@H]([C@H](O)CCCCCCCCCCCCc2ccnn2C)O1 | 65 µM | > 100 µM | > 100 µM | 24 µM | 37 µM | 37 µM | > 100 µM | 71 µM | > 100 µM | 32 µM | GI50 (MKN-7): 6.2 µM; GI50 (NCI-H460): > 100 µM; GI50 [5]: 69 µM; GI50 [6]: > 100 µM; GI50 (DMS-114): 0.55 µM; GI50 [7]: > 100 µM; GI50 (NCI-H226): 52 µM; GI50 (HT-29): 76 µM; GI50 (SF-268): > 100 µM; GI50 (NCI-H23): 0.91 µM; GI50 [8]: > 100 µM; GI50 (LOX IMVI): > 100 µM; GI50 (DMS-273): 49 µM; GI50 (MKN-74): 23 µM; GI50 (HCC 2998): 80 µM; GI50 (MCF7): 27 µM; GI50 (U-251): > 100 µM; GI50 (MDA-MB-231): 32 µM; GI50 [9]: > 100 µM
> 100 µM | > 100 µM | > 100 µM | 19 µM | 12 µM | > 100 µM | 70 µM | > 100 µM | > 100 µM | > 100 µM | CCCCCCCCCCCC[C@@H](O)[C@H]1CC[C@H]([C@H](O)CCCCCCCCCCCCc2cnn(C)c2)O1 | > 100 µM | 81 µM | 23 µM | 24 µM | > 100 µM | 37 µM | > 100 µM | > 100 µM | > 100 µM | > 100 µM | GI50 (MKN-7): 5.4 µM; GI50 (NCI-H460): > 100 µM; GI50 [5]: > 100 µM; GI50 [6]: > 100 µM; GI50 (DMS-114): 2.1 µM; GI50 [7]: > 100 µM; GI50 (NCI-H226): 56 µM; GI50 (HT-29): > 100 µM; GI50 (SF-268): > 100 µM; GI50 (NCI-H23): 13 µM; GI50 [8]: > 100 µM; GI50 (LOX IMVI): 9.5 µM; GI50 (DMS-273): > 100 µM; GI50 (MKN-74): > 100 µM; GI50 (HCC 2998): > 100 µM; GI50 (MCF7): > 100 µM; GI50 (U-251): > 100 µM; GI50 (MDA-MB-231): > 100 µM; GI50 [9]: > 100 µM

Source: ChEMBL document CHEMBL1141502, “Synthesis of hybrid acetogenins, alpha,beta-unsaturated-gamma-lactone-free nitrogen-containing heterocyclic analogues, and their cytotoxicity against human cancer cell lines” (2008)
